± gives the standard deviation of the averaged measurements.
Key:
Assay in all cases: surviving fraction relative to DMSO-only wells; higher = less growth inhibition
Conditions in all cases: exposure time: 5 days
TIOGUANINE = compound: Nc1nc2[nH]cnc2c(=S)[nH]1 [TIOGUANINE]
Summary of the method: (§1)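 For each tumour cell line, log-phase cells were put into 384-well plates at 250–500 cells per well, then after 24 hours exposed continuously for five days to inhibitors at 0.5, 1, 5, 10, 50, 100, 500 and 1000 nM. Viability was assessed by CellTiter-Glo luminescence, with surviving fraction expressed relative to the median of DMSO-only wells. Lines were screened three times and retained only if replicate Pearson r exceeded 0.7 and median Z' exceeded 0.3.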

SAPACITABINE = compound: CCCCCCCCCCCCCCCC(=O)Nc1ccn([C@@H]2O[C@H](CO)[C@@H](O)[C@@H]2C#N)c(=O)n1 [SAPACITABINE]
Summary of the method: as §1

SNX-5422 = compound: CC1(C)CC(=O)c2c(C(F)(F)F)nn(-c3ccc(C(N)=O)c(N[C@H]4CC[C@H](OC(=O)CN)CC4)c3)c2C1 [SNX-5422]
Summary of the method: as §1

CANERTINIB = compound: C=CC(=O)Nc1cc2c(Nc3ccc(F)c(Cl)c3)ncnc2cc1OCCCN1CCOCC1 [CANERTINIB]
Summary of the method: as §1

BI-2536 = compound: CC[C@@H]1C(=O)N(C)c2cnc(Nc3ccc(C(=O)NC4CCN(C)CC4)cc3OC)nc2N1C1CCCC1 [BI-2536]
Summary of the method: as §1

MCF7 BREAST
surviving fraction (TIOGUANINE; 50 nM): 0.903 ± 0.045
surviving fraction (TIOGUANINE; 100 nM): 0.875 ± 0.069
surviving fraction (TIOGUANINE; 500 nM): 0.872 ± 0.054
surviving fraction (TIOGUANINE; 1000 nM): 0.889 ± 0.055
surviving fraction (SAPACITABINE; 0.5 nM): 0.826 ± 0.037
surviving fraction (SAPACITABINE; 1 nM): 0.803 ± 0.02
surviving fraction (SAPACITABINE; 5 nM): 0.807 ± 0.015
surviving fraction (SAPACITABINE; 10 nM): 0.716 ± 0.022
surviving fraction (SAPACITABINE; 50 nM): 0.923 ± 0.028
surviving fraction (SAPACITABINE; 100 nM): 0.833 ± 0.046
surviving fraction (SAPACITABINE; 500 nM): 0.705 ± 0.033
surviving fraction (SAPACITABINE; 1000 nM): 0.538 ± 0.0081
surviving fraction (SNX-5422; 0.5 nM): 0.9 ± 0.094
surviving fraction (SNX-5422; 1 nM): 0.925 ± 0.068
surviving fraction (SNX-5422; 5 nM): 0.94 ± 0.066
surviving fraction (SNX-5422; 10 nM): 0.906 ± 0.07
surviving fraction (SNX-5422; 50 nM): 0.627 ± 0.02
surviving fraction (SNX-5422; 100 nM): 0.465 ± 0.011
surviving fraction (SNX-5422; 500 nM): 0.303 ± 0.015
surviving fraction (SNX-5422; 1000 nM): 0.321 ± 0.01
surviving fraction (CANERTINIB; 0.5 nM): 0.838 ± 0.027
surviving fraction (CANERTINIB; 1 nM): 0.831 ± 0.023
surviving fraction (CANERTINIB; 5 nM): 0.818 ± 0.02
surviving fraction (CANERTINIB; 10 nM): 0.79 ± 0.018
surviving fraction (CANERTINIB; 50 nM): 0.888 ± 0.02
surviving fraction (CANERTINIB; 100 nM): 0.859 ± 0.039
surviving fraction (CANERTINIB; 500 nM): 0.854 ± 0.082
surviving fraction (CANERTINIB; 1000 nM): 0.808 ± 0.026
surviving fraction (BI-2536; 0.5 nM): 0.911 ± 0.071
surviving fraction (BI-2536; 1 nM): 0.913 ± 0.07
surviving fraction (BI-2536; 5 nM): 0.797 ± 0.074
surviving fraction (BI-2536; 10 nM): 0.445 ± 0.018
surviving fraction (BI-2536; 50 nM): 0.408 ± 0.021
surviving fraction (BI-2536; 100 nM): 0.38 ± 0.022
surviving fraction (BI-2536; 500 nM): 0.394 ± 0.01
surviving fraction (BI-2536; 1000 nM): 0.319 ± 0.0042

Reference: the supplement of paper PMC6045584
